Results taken from publication PMC3989234, “Introduction of Aromatic Ring-Containing Substituents in Cyclic Nucleotides Is Associated with Inhibition of Toxin Uptake by the Hepatocyte Transporters OATP 1B1 and 1B3” (PLoS ONE, 2014).
Read-outs that look alike come from different tables or passages of the source.

Experiments:
primary rat hepatocytes [1] = tested on: primary rat hepatocytes
primary rat hepatocytes [2] = tested on: primary rat hepatocytes; remark: listed apart in the source
OATP1B1 [3] = molecular target: T1, OATP1B1 (Homo sapiens, UniProt Q9Y6L6)
T1 sequence (Q9Y6L6 1-691): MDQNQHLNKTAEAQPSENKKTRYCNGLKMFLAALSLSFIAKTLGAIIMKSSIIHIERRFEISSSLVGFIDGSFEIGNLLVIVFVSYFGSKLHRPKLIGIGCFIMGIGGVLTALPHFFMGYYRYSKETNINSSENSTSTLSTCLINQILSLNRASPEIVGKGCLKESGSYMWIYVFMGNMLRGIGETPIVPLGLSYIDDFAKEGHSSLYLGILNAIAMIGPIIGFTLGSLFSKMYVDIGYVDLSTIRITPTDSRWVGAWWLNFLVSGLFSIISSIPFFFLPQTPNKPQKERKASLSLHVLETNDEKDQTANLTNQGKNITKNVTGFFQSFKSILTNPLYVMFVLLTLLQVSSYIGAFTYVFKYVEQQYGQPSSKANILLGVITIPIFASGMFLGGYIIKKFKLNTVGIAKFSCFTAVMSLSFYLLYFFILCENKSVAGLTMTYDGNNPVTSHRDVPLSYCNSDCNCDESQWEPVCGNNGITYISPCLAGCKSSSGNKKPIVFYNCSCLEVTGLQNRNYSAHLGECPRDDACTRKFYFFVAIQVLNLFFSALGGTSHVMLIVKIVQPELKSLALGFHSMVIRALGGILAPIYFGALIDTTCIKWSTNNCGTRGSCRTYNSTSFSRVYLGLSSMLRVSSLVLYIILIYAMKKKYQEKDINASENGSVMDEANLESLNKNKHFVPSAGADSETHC

OATP1B3 [4] = molecular target: T2, OATP1B3 (Homo sapiens, UniProt Q9NPD5)
T2 sequence (Q9NPD5 whole entry): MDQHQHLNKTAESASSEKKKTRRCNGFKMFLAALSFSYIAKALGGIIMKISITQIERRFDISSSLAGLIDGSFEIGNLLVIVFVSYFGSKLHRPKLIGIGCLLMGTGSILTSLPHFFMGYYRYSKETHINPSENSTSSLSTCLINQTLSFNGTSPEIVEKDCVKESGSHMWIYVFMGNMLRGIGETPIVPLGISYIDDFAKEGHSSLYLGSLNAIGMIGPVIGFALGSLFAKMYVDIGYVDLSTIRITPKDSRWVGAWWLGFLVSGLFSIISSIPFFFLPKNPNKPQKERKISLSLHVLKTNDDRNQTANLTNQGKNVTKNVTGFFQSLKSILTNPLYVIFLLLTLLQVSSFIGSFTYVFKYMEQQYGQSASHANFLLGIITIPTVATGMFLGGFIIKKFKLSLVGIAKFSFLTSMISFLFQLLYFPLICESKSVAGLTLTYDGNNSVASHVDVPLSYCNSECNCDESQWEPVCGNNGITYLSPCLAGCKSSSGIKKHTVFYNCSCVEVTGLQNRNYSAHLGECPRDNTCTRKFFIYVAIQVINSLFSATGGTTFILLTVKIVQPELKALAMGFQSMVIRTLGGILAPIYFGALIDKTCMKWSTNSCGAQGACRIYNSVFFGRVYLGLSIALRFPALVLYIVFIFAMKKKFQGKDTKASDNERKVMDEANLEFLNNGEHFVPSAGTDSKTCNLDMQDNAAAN

OATP1B1 [5] = molecular target: T1, OATP1B1; test: cell-based
OATP1B3 [6] = molecular target: T2, OATP1B3; test: cell-based
primary rat hepatocytes [7] = tested on: primary rat hepatocytes; remark: listed apart in the source

CO[C@@H]1[C@@H]2OP(=O)(OCOC(C)=O)OC[C@H]2O[C@H]1n1c(Sc2ccc(Cl)cc2)nc2c(N)ncnc21 (some centres unmarked) [8-pCPT-2′-O-Me-cAMP-AM, 8-(4-Chlorophenylthio)-2′-O-methyladenosine-3′, 5′-cyclic monophosphate, acetoxymethyl ester]
Effect on [3H]-Nod accumulation in hepatocytes (primary rat hepatocytes [1]): did not affect
Effect on [14C]-glycocholic acid accumulation in hepatocytes (primary rat hepatocytes [2]; 50 µM): no inhibitory effect

COC1C2OP(O)(=S)OCC2OC1n1c(Sc2ccc(Cl)cc2)nc2c(N)ncnc21 (single isomer, unassigned) [Rp-8-pCPT-2′-O-Me-cAMPS, 8-(4-Chlorophenylthio)-2′-O-methyladenosine-3′, 5′-cyclic monophosphorothioate, Rp-isomer]
IC50 (OATP1B1 [3]): > 300 µM
IC50 (OATP1B3 [4]): > 300 µM

CC(C)Cn1c(=O)n(C)c(=O)c2[nH]cnc21 [IBMX]
Effect on Nod-induced apoptosis, OATP1B1-transfected cells (OATP1B1 [3]; 250 µM): did not affect
Effect on Nod-induced apoptosis, OATP1B3-transfected cells (OATP1B3 [4]; 250 µM): did not affect

O=P1(O)OCC2OC(n3c(Sc4ccc(Cl)cc4)nc4c(Nc5ccccc5)ncnc43)C(O)C2O1 (centres unmarked) [8-pCPT-6-Phe-cAMP, 8-(4-Chlorophenylthio)-N^6-phenyladenosine-3′, 5′-cyclic monophosphate]
Ki (OATP1B1 [3]): 2.07 µM
Ki (OATP1B3 [4]): 0.804 µM

CO[C@H]1C2OP(=O)(O)OC[C@H]2O[C@H]1n1c(Br)nc2c(N)ncnc21 (some centres unmarked) [8-Br-2′-O-Me-cAMP, 8-Bromo-2′-O-methyladenosine-3′, 5′-cyclic monophosphate]
IC50 (OATP1B1 [3]): > 300 µM
Effect on Nod-induced apoptosis / Nod transport, OATP1B3-transfected HEK293T cells (OATP1B3 [4]): some inhibition
IC50 (OATP1B3 [4]): > 300 µM

Nc1nc2c(nc(Sc3ccc(Cl)cc3)n2[C@@H]2O[C@@H]3COP(=O)(O)O[C@H]3[C@H]2O)c(=O)[nH]1 [Analog 8-pCPT-cGMP, 8-(4-Chlorophenylthio)guanosine-3′, 5′-cyclic monophosphate]
IC50 (OATP1B1 [3]): 259 µM
Ki (OATP1B1 [3]): 86.3 µM
IC50 (OATP1B3 [4]): 88.8 µM
Ki (OATP1B3 [4]): 29.6 µM

Nc1nc2c(ncn2[C@@H]2O[C@@H]3COP(=O)(O)O[C@H]3[C@H]2O)c(=O)[nH]1 [cGMP]
Effect on Nod-induced apoptosis / Nod transport, OATP1B1-transfected HEK293T cells (OATP1B1 [3]): did not affect
IC50 (OATP1B1 [3]): > 300 µM
Effect on Nod-induced apoptosis / Nod transport, OATP1B3-transfected HEK293T cells (OATP1B3 [4]): did not affect
IC50 (OATP1B3 [4]): > 300 µM

Nc1ncnc2c1ncn2[C@@H]1O[C@H](CO)[C@@H](O)[C@H]1O [Adenosine, adenosine]
IC50 (OATP1B1 [5]): > 300 µM
IC50 (OATP1B3 [6]): > 300 µM

Nc1ncnc2c1ncn2C1OC2COP(=O)(O)OC2C1O (centres unmarked) [cAMP]
Effect on Nod-induced apoptosis / Nod transport, OATP1B1-transfected HEK293T cells (OATP1B1 [3]): did not affect
Effect on Nod-induced apoptosis / Nod transport, OATP1B3-transfected HEK293T cells (OATP1B3 [4]): did not affect
IC50 (OATP1B1 [5]): > 300 µM
IC50 (OATP1B3 [6]): > 300 µM

Nc1ncnc2c1nc(Sc1ccc(Cl)cc1)n2C1CC2OP(=O)(O)OCC2O1 (centres unmarked) [Analog 8-pCPT-dcAMP, 8-(4-Chlorophenylthio)adenosine-2′-deoxyadenosine-3′, 5′-cyclic monophosphate]
IC50 (OATP1B1 [3]): 223 µM
Ki (OATP1B1 [3]): 74.7 µM
IC50 (OATP1B3 [4]): 55.7 µM
Ki (OATP1B3 [4]): 14.9 µM
Effect on Nod-induced hepatocyte apoptosis (Fig. 2A) (primary rat hepatocytes [7]): blocked Nod-induced apoptosis
Effect on [14C]-glycocholic acid accumulation in hepatocytes (primary rat hepatocytes [2]): inhibited uptake

CO[C@@H]1[C@H](O)[C@@H](CO)O[C@H]1n1c(Sc2ccc(Cl)cc2)nc2c(N)ncnc21 [8-pCPT-2′-O-Me-Ado, 8-(4-Chlorophenylthio)-2′-O-methyladenosine]
IC50 (OATP1B1 [5]): 31.3 µM
Ki (OATP1B1 [5]): 10.4 µM
IC50 (OATP1B3 [6]): 17.2 µM
Ki (OATP1B3 [6]): 4.61 µM

Nc1ncnc2c1nc(Br)n2[C@@H]1O[C@@H]2COP(=O)(O)O[C@H]2[C@H]1O [Analog 8-Br-cAMP, 8-Bromoadenosine-3′, 5′-cyclic monophosphate]
IC50 (OATP1B1 [3]): > 300 µM
IC50 (OATP1B3 [4]): > 300 µM

Nc1ncnc2c1nc(Sc1ccc(Cl)cc1)n2[C@@H]1O[C@@H]2COP(=O)([O-])O[C@H]2[C@H]1O.[Na+] [Analog 8-pCPT-cAMP, 8-(4-Chlorophenylthio)adenosine-3′, 5′-cyclic monophosphate]
Effect on Nod-induced apoptosis / Nod transport, OATP1B1-transfected HEK293T cells (OATP1B1 [3]): inhibits
IC50 (OATP1B1 [3]): 130 µM
Ki (OATP1B1 [3]): 43.3 µM
Effect on Nod-induced apoptosis / Nod transport, OATP1B3-transfected HEK293T cells (OATP1B3 [4]): inhibits
IC50 (OATP1B3 [4]): 49.6 µM
Ki (OATP1B3 [4]): 13.3 µM
Effect on Nod-induced hepatocyte apoptosis (Fig. 1A) (primary rat hepatocytes [7]): inhibited completely apoptotic morphology
Effect on Nod-induced hepatocyte apoptosis (Fig. 2A) (primary rat hepatocytes [7]): clear inhibition
[14C]-GCA accumulation compared to control (primary rat hepatocytes [2]): 60%

O=P1(O)OC[C@H]2O[C@@H](n3c(Sc4ccc(Cl)cc4)nc4c(Nc5ccccc5)ncnc43)C[C@@H]2O1 [8-pCPT-6-Phe-dcAMP, 8-(4-Chlorophenylthio)-N^6-phenyladenosine-2′-deoxyadenosine 3′, 5′-cyclic monophosphate]
IC50 (OATP1B1 [3]): 8.2 µM
Ki (OATP1B1 [3]): 2.73 µM
IC50 (OATP1B3 [4]): 8 µM
Ki (OATP1B3 [4]): 2.14 µM

Nc1nc2c(nc(Br)n2[C@@H]2O[C@@H]3COP(=O)(O)O[C@H]3[C@H]2O)c(=O)[nH]1 [Analog 8-Br-cGMP, 8-Bromoguanosine-3′, 5′-cyclic monophosphate]
Effect on Nod-induced apoptosis / Nod transport, OATP1B1-transfected HEK293T cells (OATP1B1 [3]): inactive
IC50 (OATP1B1 [3]): > 300 µM
Effect on Nod-induced apoptosis / Nod transport, OATP1B3-transfected HEK293T cells (OATP1B3 [4]): inactive
IC50 (OATP1B3 [4]): > 300 µM

Nc1ncnc2c1nc(Sc1ccc(Cl)cc1)n2[C@@H]1O[C@H](CO)[C@@H](O)[C@H]1O [Analog 8-pCPT-Ado, 8-(4-Chlorophenylthio)adenosine]
IC50 (OATP1B1 [5]): > 300 µM
IC50 (OATP1B3 [6]): 150 µM
Ki (OATP1B3 [6]): 40.2 µM

CCCC(=O)Nc1ncnc2c1ncn2[C@@H]1O[C@@H]2COP(=O)(O)O[C@H]2[C@H]1O [Analog 6-MB-cAMP, N^6-Monobutyryladenosine-3′, 5′-cyclic monophosphate]
Effect on Nod-induced apoptosis / Nod transport, OATP1B1-transfected HEK293T cells (OATP1B1 [3]): no inhibitory effect
IC50 (OATP1B1 [3]): > 300 µM
Effect on Nod-induced apoptosis / Nod transport, OATP1B3-transfected HEK293T cells (OATP1B3 [4]): no inhibitory effect
IC50 (OATP1B3 [4]): > 300 µM
Effect on Nod-induced hepatocyte apoptosis (Fig. 1A) (primary rat hepatocytes [7]): no change in apoptosis induction
[14C]-GCA accumulation rel. to control (primary rat hepatocytes [2]; 50 µM): about 1.7
[14C]-GCA accumulation rel. to control (primary rat hepatocytes [2]; 400 µM): 1.1

CO[C@H]1/C=C/O[C@@]2(C)Oc3c(C)c(O)c4c(O)c(cc(O)c4c3C2=O)NC(=O)/C(C)=C\C=C\[C@H](C)[C@H](O)[C@@H](C)[C@@H](O)[C@@H](C)[C@H](OC(C)=O)[C@@H]1C [rifamycin SV, Rifamycin SV]
Effect on Nod-induced apoptosis / Nod transport, OATP1B1-transfected HEK293T cells (OATP1B1 [3]): abolished
Effect on Nod-induced apoptosis / Nod transport, OATP1B3-transfected HEK293T cells (OATP1B3 [4]): abolished

CCCC(=O)Nc1ncnc2c1ncn2[C@@H]1O[C@@H]2COP(=O)(O)O[C@H]2[C@H]1OC(=O)CCC [DB-cAMP, N^6, 2′-O-Dibutyryladenosine-3′, 5′-cyclic monophosphate]
Effect on Nod-induced apoptosis / Nod transport, OATP1B1-transfected HEK293T cells (OATP1B1 [3]; human): but not to OATP1B1 activity
IC50 (OATP1B1 [5]): > 300 µM
IC50 (OATP1B3 [6]): 119 µM

C/C=C1/C(=O)N[C@@H](C(=O)O)[C@H](C)C(=O)N[C@@H](CCCNC(=N)N)C(=O)N[C@@H](/C=C/C(C)=C/[C@H](C)[C@H](Cc2ccccc2)OC)[C@H](C)C(=O)N[C@@H](C(=O)O)CCC(=O)N1C [Nod, nodularin]
Km (OATP1B1 [3]; read-out: Km for Nod, OATP1B1): 0.05 µM
Km (OATP1B3 [4]; read-out: Km for Nod, OATP1B3): 0.22 µM

Nc1ncnc2c1nc(Br)n2C1OC2COP(O)(=S)OC2C1O (single isomer, unassigned) [Rp-8-Br-cAMPS, 8-Bromoadenosine-3′, 5′-cyclic monophosphorothioate, Rp-isomer]
IC50 (OATP1B1 [3]): > 300 µM
IC50 (OATP1B3 [4]): > 300 µM
Effect on Nod-induced hepatocyte apoptosis (Fig. 1F) (primary rat hepatocytes [7]; 300 µM, 150 nM Nod): inhibited apoptotic morphology

CO[C@H]1C2OP(O)(=S)OC[C@H]2O[C@H]1n1c(Sc2ccc(Cl)cc2)nc2c(N)ncnc21 (single isomer, unassigned) [Sp-8-pCPT-2′-O-Me-cAMPS, 8-(4-Chlorophenylthio)-2′-O-methyladenosine-3′, 5′-cyclic monophosphorothioate, Sp- isomer]
IC50 (OATP1B1 [3]): 19.9 µM
Ki (OATP1B1 [3]): 6.63 µM
IC50 (OATP1B3 [4]): 8.7 µM
Ki (OATP1B3 [4]): 2.33 µM
Effect on Nod-induced hepatocyte apoptosis (Fig. 2A) (primary rat hepatocytes [7]): clear inhibition
Effect on [3H]-Nod accumulation in hepatocytes (primary rat hepatocytes [1]): almost completely inhibited
Effect on [14C]-glycocholic acid accumulation in hepatocytes (primary rat hepatocytes [2]; 50 µM): almost completely inhibited

O=C1OC(c2ccc(O)c(S(=O)(=O)O)c2)(c2ccc(O)c(S(=O)(=O)O)c2)c2c(Br)c(Br)c(Br)c(Br)c21 [BSP, sulfobromophthalein]
Effect on [3H]-Nod accumulation in hepatocytes (primary rat hepatocytes [1]): complete inhibition
Effect on [14C]-glycocholic acid accumulation in hepatocytes (primary rat hepatocytes [2]; 50 µM): complete inhibition
